These results are taken from patent publication US8440710B2, “HSL inhibitors useful in the treatment of diabetes” (Hoffmann-La Roche Inc., priority 2009, dated 2013).

Each structure is given as a SMILES string.

In this assay the target is T1, human HSL (Homo sapiens, UniProt Q05469).
T1 construct: generate a full length human HSL ORF with a 3′-His6 tag; made in house; host or cells: High 5 insect cells (baculovirus, pFast-BAC)
T1 sequence (Q05469 1-1076): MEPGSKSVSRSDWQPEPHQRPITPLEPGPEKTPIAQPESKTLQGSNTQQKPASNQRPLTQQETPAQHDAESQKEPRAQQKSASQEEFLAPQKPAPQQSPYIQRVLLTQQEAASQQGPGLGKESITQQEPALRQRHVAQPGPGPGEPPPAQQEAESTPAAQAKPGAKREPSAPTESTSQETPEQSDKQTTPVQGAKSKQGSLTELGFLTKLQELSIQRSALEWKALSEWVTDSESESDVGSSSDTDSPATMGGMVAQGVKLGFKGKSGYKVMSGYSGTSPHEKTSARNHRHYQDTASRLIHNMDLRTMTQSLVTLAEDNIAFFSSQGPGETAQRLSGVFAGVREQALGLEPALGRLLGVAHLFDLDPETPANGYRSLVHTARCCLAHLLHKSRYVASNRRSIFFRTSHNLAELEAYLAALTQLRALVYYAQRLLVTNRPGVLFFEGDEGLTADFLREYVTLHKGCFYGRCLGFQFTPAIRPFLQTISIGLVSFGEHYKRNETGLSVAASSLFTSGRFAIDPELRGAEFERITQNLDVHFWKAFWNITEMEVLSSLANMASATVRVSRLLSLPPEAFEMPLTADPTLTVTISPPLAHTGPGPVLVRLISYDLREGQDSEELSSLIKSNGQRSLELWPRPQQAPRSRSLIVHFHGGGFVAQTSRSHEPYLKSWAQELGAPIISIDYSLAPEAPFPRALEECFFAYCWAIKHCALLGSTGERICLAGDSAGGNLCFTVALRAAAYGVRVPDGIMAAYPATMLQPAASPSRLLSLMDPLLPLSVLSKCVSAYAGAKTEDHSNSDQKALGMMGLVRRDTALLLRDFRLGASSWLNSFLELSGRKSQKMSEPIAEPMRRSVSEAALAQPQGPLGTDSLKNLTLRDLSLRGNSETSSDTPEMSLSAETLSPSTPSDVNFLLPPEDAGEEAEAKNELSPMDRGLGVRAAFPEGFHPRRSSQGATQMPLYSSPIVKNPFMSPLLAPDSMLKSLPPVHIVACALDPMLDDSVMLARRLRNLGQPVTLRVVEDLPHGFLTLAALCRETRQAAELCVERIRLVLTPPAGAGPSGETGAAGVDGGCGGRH
As to the kind of experiment: Human Hormone-Sensitive Lipase (HSL) enzyme inhibition assay (colorimetric, DMPT substrate). The settings on record: human full length HSL-His6, 2,3-dimercapto-1-propanol tributyrate substrate, 37° C. 20 minutes, absorbance at 405 nm; read-out: HSL hum IC50. The class given is biochemical. In outline: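 Full-length human HSL with C-terminal His6, expressed in baculovirus-infected High 5 cells and Ni-NTA purified, was added (15 ug/ml stock) to 1.5 mM DMPT in 100 mM MOPS pH 7.2, 0.2 mg/ml fatty acid-free BSA containing compound. After 20 min at 37 °C, DTNB with SDS/Triton X-100 was added; A405 read after 15 min at RT.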
Turning to `CC(C)[C@]1(O)CC[C@]2(CCN(c3ccc(OCC(F)(F)F)nc3)C2=O)CC1` [Example 108, (5α,8α)-8-Hydroxy-8-isopropyl-2-(6-(2,2,2-trifluoroethoxy)pyridin-3-yl)-2-aza-spiro[4.5]decan-1-one], the IC50 stood at 0.02 µM.
In the case of `COc1ccc(N2CC[C@]3(CC[C@H](O)CC3)C2=O)cc1` [Example 31, (5α,8α)-8-Hydroxy-2-(4-methoxy-phenyl)-2-aza-spiro[4.5]decan-1-one] it was 23.7 µM.
With `CCCOC[C@]1(O)CC[C@]2(CCN(c3ccc(OCC(F)(F)F)nc3)C2=O)CC1` [Example 267, (5α,8α)-8-Hydroxy-8-propoxymethyl-2-[6-(2,2,2-trifluoro-ethoxy)-pyridin-3-yl]-2-aza-spiro[4.5]decan-1-one] the figure was 0.03 µM; with `CCc1ccc(N2CC[C@]3(CC[C@@H](O)CC3)C2=O)cc1` [Example 5, (5α,8β)-2-(4-Ethyl-phenyl)-8-hydroxy-2-aza-spiro[4.5]decan-1-one], 2.37 µM; with `O=C1N(c2ccc3c(c2)OC(F)(F)O3)CC[C@]12CC[C@@](O)(C(F)(F)F)CC2` [Example 336, (5α,8α)-2-(2,2-Difluoro-benzo[1,3]dioxol-5-yl)-8-hydroxy-8-trifluoromethyl-2-aza-spiro[4.5]decan-1-one], 0.21 µM.
For `C[C@@H](Oc1ccc(N2CC[C@]3(CC[C@@](O)(COCC(F)F)CC3)C2=O)cn1)C(F)(F)F` [Example 314, (5α,8α)-8-(2,2-Difluoro-ethoxymethyl)-8-hydroxy-2-[6-((R)-2,2,2-trifluoro-1-methyl-ethoxy)-pyridin-3-yl]-2-aza-spiro[4.5]decan-1-one], the IC50 is 0.02 µM.
On to `COC[C@]1(O)CC[C@]2(CCN(c3ccc(OCC(F)(F)F)cc3)C2=O)CC1` [Example 258, (5α,8α)-8-Hydroxy-8-methoxymethyl-2-[4-(2,2,2-trifluoro-ethoxy)-phenyl]-2-aza-spiro[4.5]decan-1-one], for which the IC50 stood at 0.07 µM.
For `COC[C@]1(O)CC[C@]2(CCN(c3ccc(O[C@H](C)C(F)(F)F)nc3)C2=O)CC1` [Example 152, (5α,8α)-8-Hydroxy-8-methoxymethyl-2-[6-((R)-2,2,2-trifluoro-1-methyl-ethoxy)-pyridin-3-yl]-2-aza-spiro[4.5]decan-1-one], the IC50 turned out to be 0.05 µM.
For the compound `CC(C)COC[C@]1(O)CC[C@@]2(CCN(c3ccc(OCC(F)(F)F)cc3)C2=O)CC1` [Example 245, (5α,8β)-8-Hydroxy-8-isobutoxymethyl-2-[4-(2,2,2-trifluoro-ethoxy)-phenyl]-2-aza-spiro[4.5]decan-1-one], the IC50 amounted to 0.28 µM.
With `CC(C)(C)c1ccc(N2CC[C@]3(CC[C@@](O)(CN4CCCCC4=O)CC3)C2=O)cc1` [Example 351, (5α,8α)-2-(4-tert-Butyl-phenyl)-8-hydroxy-8-(2-oxo-piperidin-1-ylmethyl)-2-aza-spiro[4.5]decan-1-one], the IC50 came out at 0.01 µM.
With `Cc1ccc(O[C@H]2CC[C@@]3(CCN(c4ccc(OC(F)(F)F)cc4)C3=O)CC2)nn1` [Example 21, (5α,8β)-8-(6-Methyl-pyridazin-3-yloxy)-2-(4-trifluoromethoxy-phenyl)-2-aza-spiro[4.5]decan-1-one] the figure was 0.1 µM.
On to `CCC[C@]1(O)CC[C@]2(CCN(c3ccc(OCCCOC)cc3)C2=O)CC1` [Example 94, (5α,8α)-8-Hydroxy-2-[4-(3-methoxy-propoxy)-phenyl]-8-propyl-2-aza-spiro[4.5]decan-1-one], for which the IC50 stood at 0.08 µM.
Consider `CCc1ccc(CCN2CC[C@]3(CC[C@@](O)(COC(C)C)CC3)C2=O)cc1` [Example 375, (5α,8α)-2-[2-(4-Ethyl-phenyl)-ethyl]-8-hydroxy-8-isopropoxymethyl-2-aza-spiro[4.5]decan-1-one], for which the IC50 is 0.0142 µM.
`C[C@]1(O)CC[C@@]2(CCN(c3ccc(CC(F)(F)F)cc3)C2=O)CC1` [Example 78, (5α,8β)-8-Hydroxy-8-methyl-2-[4-(2,2,2-trifluoro-ethyl)-phenyl]-2-aza-spiro[4.5]decan-1-one]: the IC50 came out at 0.9 µM.
In the case of `CCC[C@]1(O)CC[C@@]2(CCN(c3ccc(OCCC(F)(F)F)cc3)C2=O)CC1` [Example 100, (5α,8β)-8-Hydroxy-8-propyl-2-[4-(3,3,3-trifluoro-propoxy)-phenyl]-2-aza-spiro[4.5]decan-1-one] it was 0.36 µM; in that of `C[C@H](Oc1ccc(N2CC[C@]3(CC[C@@](O)(CS(=O)(=O)C(C)(C)C)CC3)C2=O)cn1)C(F)(F)F` [Example 325, (5α,8α)-8-Hydroxy-8-(2-methyl-propane-2-sulfonylmethyl)-2-[6-((S)-2,2,2-trifluoro-1-methyl-ethoxy)pyridin-3-yl]-2-aza-spiro[4.5]decan-1-one], 0.01 µM.
With `C=CC[C@]1(O)CC[C@]2(CCN(c3ccc(O[C@H](C)C(F)(F)F)cc3)C2=O)CC1` [Example 142, (5α,8α)-8-Allyl-8-hydroxy-2-[4-((R)-2,2,2-trifluoro-1-methyl-ethoxy)-phenyl]-2-aza-spiro[4.5]decan-1-one], the IC50 was found to be 0.01 µM.
Regarding `CC(C)S(=O)(=O)C[C@]1(O)CC[C@]2(CCN(c3ccc(C(C)(C)C)cc3)C2=O)CC1` [Example 333, (5α,8α)-2-(4-tert-Butyl-phenyl)-8-hydroxy-8-(propane-2-sulfonylmethyl)-2-aza-spiro[4.5]decan-1-one], the IC50 stood at 0.008 µM.
With `COCCC[C@]1(O)CC[C@@]2(CCN(c3ccc(OC(F)(F)F)cc3)C2=O)CC1` [Example 91, (5α,8β)-8-Hydroxy-8-(3-methoxy-propyl)-2-(4-trifluoromethoxy-phenyl)-2-aza-spiro[4.5]decan-1-one], the IC50 was 0.896 µM.
`CC(C)c1ccc(N2CC[C@]3(CC[C@@](O)(c4ccccc4)CC3)C2=O)cc1` [Example 205, (5α,8α)-8-hydroxy-2-(4-isopropylphenyl)-8-phenyl-2-aza-spiro[4.5]decan-1-one]: the IC50 worked out at 0.01 µM.
In the case of `O=C1N(c2ccc(OCC(F)(F)F)cc2)CC[C@]12CC[C@](O)(COCC1CC1)CC2` [Example 256, (5α,8β)-8-[(Cyclopropylmethoxy)methyl]-8-hydroxy-2-[4-(2,2,2-trifluoro-ethoxy)-phenyl]-2-aza-spiro[4.5]decan-1-one] it was 0.69 µM; in that of `CCCC[C@]1(O)CC[C@]2(CCN(c3ccc(CCOC)cc3)C2=O)CC1` [Example 129, (5α,8α)-8-Butyl-8-hydroxy-2-[4-(2-methoxy-ethyl)-phenyl]-2-aza-spiro[4.5]decan-1-one], 0.02 µM; in that of `CCc1ccc(CCN2CC[C@]3(CC[C@H](O)CC3)C2=O)cc1` [Example 34, (5α,8α)-2-[2-(4-Ethyl-phenyl)-ethyl]-8-hydroxy-2-aza-spiro[4.5]decan-1-one], 0.8 µM.
On to `CC(C)[C@]1(O)CC[C@]2(CCN(c3ccc(OC(F)(F)F)cc3)C2=O)CC1` [Example 68, (5α,8α)-8-Hydroxy-8-isopropyl-2-(4-trifluoromethoxy-phenyl)-2-aza-spiro[4.5]decan-1-one], for which the IC50 came to 0.03 µM.
Turning to `COC[C@]1(O)CC[C@]2(CCN(c3ccc(OC(F)(F)F)cc3)C2=O)CC1` [Example 114, (5α,8α)-8-Hydroxy-8-methoxymethyl-2-(4-trifluoromethoxy-phenyl)-2-aza-spiro[4.5]decan-1-one], the IC50 came out at 0.03 µM.
For the compound `O=C1N(c2ccc(OC(F)(F)F)cc2)CC[C@]12CC[C@@](O)(C1CC1)CC2` [Example 70, (5α,8α)-8-Cyclopropyl-8-hydroxy-2-(4-trifluoromethoxy-phenyl)-2-aza-spiro[4.5]decan-1-one], the IC50 stood at 0.13 µM.
In the case of `CCc1ccc(N2CC[C@]3(CC[C@@](O)(COCC(F)(F)F)CC3)C2=O)cc1` [Example 231, (5α,8α)-2-(4-Ethyl-phenyl)-8-hydroxy-8-(2,2,2-trifluoro-ethoxymethyl)-2-aza-spiro[4.5]decan-1-one] it was 0.02 µM; in that of `COCCC[C@]1(O)CC[C@]2(CCN(c3ccc(CC(F)(F)F)cc3)C2=O)CC1` [Example 93, (5α,8α)-8-Hydroxy-8-(3-methoxy-propyl)-2-[4-(2,2,2-trifluoro-ethyl)-phenyl]-2-aza-spiro[4.5]decan-1-one], 0.02 µM.
